Data reported in paper PMC9232612, “A phase 1b randomised controlled trial of a glucagon-like peptide-1 and glucagon receptor dual agonist IBI362 (LY3305677) in Chinese patients with type 2 diabetes” (Nature Communications, 2022).
“And” between values parts separate entries of the source, which are not always exact repeats. Equal values may be shown once.

Legend:
Format in all cases: in vivo, human
[1] = system: Chinese patients with T2D; test: Lipids (total cholesterol, LDL cholesterol, triglycerides); details: mean
Experimental: Fig. S8: Change from baseline in lipids levels at week 12.
Data are plotted as means +/- SD. IBI362 3.0 mg n = 7; IBI362 4.5 mg n = 5; IBI362 6.0 mg n = 8; Pooled placebo n = 10; Dulaglutide n = 6. CFB = change from baseline; LDL = low density lipoprotein; SD = standard deviation. Source data are provided as a Source Data file.
Total cholesterol LDL cholesterol Triglycerides
CFB in lipids at week 12 (mmol/L),
(1 picture or pasted object on this page, not shown here) […]
Table 4 Routine laboratory safety assessments […]
Lipids Total cholesterol (TC), triglyceride (TG), high-density lipoprotein cholesterol (HDL-C), and low-density lipoprotein cholesterol (LDL-C). […]

[2] = system: Chinese patients with T2D; test: Mixed-meal tolerance test (MTT): plasma glucose and glucose AUC0-4 h; details: for Percent change from baseline to week 12 in post-MTT glucose AUC0-4 h, LS mean: MMRM
Experimental: (§1) HbA1c (2200101, Bio-Rad, USA), blood glucose (05168791190, Roche Diagnostics, Germany), insulin (12017547122, Roche Diagnostics, Germany), C peptide (03184897190, Roche Diagnostics, Germany), total GLP-1 (GLP-1 [7–36] amide and its metabolite, GLP-1 [9–36] amide, 10-1278-01, Mercodia AB, Sweden) and OXM (AL-139, AnshLabs, USA) tests were performed according to the manufactures’ instruction manuals in a central laboratory (KingMed Diagnostics, Guangzhou, China). HbA1c was measured using a Bio-rad D-100 Haemoglobin Testing System (Bio-rad). Blood glucose was measured using a Roche Cobas c702 analyser (Roche Diagnostics). Insulin and C peptide were measured using a Roche […] analyser (Roche Diagnostics). GLP-1 and OXM were measured using a Tecan Infinite M Plex microplate reader (TECAN).
(§2) Standard non-compartmental pharmacokinetics methods were used to analyze IBI362 plasma concentration data using Pkanalix 2020R1 (Lixoft, Antony, France). Secondary efficacy outcomes included change from baseline to week 12 in HbA1c, fasting plasma glucose (FPG), fasting insulin levels, change from baseline to week 12 in post-mixed-meal tolerance test (post-MTT) glucose, insulin, C peptide, GLP-1 and OXM levels, as well as seven-point self-measured blood glucose (SMBG) profile.
The analyses for change from baseline in HbA1c, FPG, post-MTT glucose AUC0–4 h and body weight were performed using the mixed-effect model for repeated measures (MMRM) with least-squares means and standard error provided. The MMRM included the corresponding baseline value, treatment, visit and treatment-by-visit as fixed effects and patient as a random effect. Mean change or mean percent change from baseline were analysed using a restricted maximum likelihood (REML)‐based repeated measures approach in combination with the Newton Raphson Algorithm. The fix effect of visit was fitted as a repeated effect and an unstructured covariance matrix was used. In case of non-converge, matrix like Variance Components and Compound Symmetry will be tested in a subsequent order until model‐convergence is achieved. The Kenward-Roger degree of freedom was used in estimating fixed effects. No missing data imputation was conducted. For HbA1c, FPG and body weight, point estimate of treatment difference versus placebo and 90% CI were provided for each IBI362 dose group and the dulaglutide group, with nominal p values. […]
(§3) 3. Standard meal test (MTT) collection measures included: insulin, C-peptide, plasma glucose, glucagon, endogenous OXM, and endogenous GLP-1. The sampling points include: fasting, 30 min, 1h, 2h, 3h and 4h.
(§4) A total of 9 mL blood will be collected from each blood collection point. See the manual of the central laboratory for the detailed operation process. Fasting state refers to fasting for 10 hours. [ The standard meal is
(§5) instant noodles. The master Kang roast beef noodles (bucket noodles) purchased by the sponsor in a unified manner are removed from the oil bag. The noodles are soaked in boiled water and then removed. The seasoning
(§6) bag is added and mixed well. The time is counted from the first bite of eating. The noodles are eaten within 10 minutes, and 200 mL of water is drunk; or the instant noodles are directly opened with 200 mL of boiled
(§7) water to ensure that the noodles are eaten and the water or soup is drunk]. Visit days when MTT test is performed: 1 day prior to Cycle 1 administration, Day 80 (D80). […]
(§8) ● Test by central laboratory

[3] = system: Chinese patients with T2D; test: Mixed-meal tolerance test (MTT): insulin
Experimental: as §1
as §2, with “profile. […]” for “profile.”
as §3, §4, §5, §6, §7, §8

[4] = system: Chinese patients with T2D; test: Fasting plasma glucose (FPG); details: MMRM; for Change from baseline in fasting plasma glucose, LS mean / Change from baseline in fasting plasma glucose, LS mean (SE): n=8; for Change from baseline in fasting plasma glucose, LS mean (SE) / Fasting plasma glucose: ETD versus placebo, LS mean (90% CI): week 12
Experimental: as §1, §2
The analyses for change from baseline in HbA1c, FPG, post-MTT glucose AUC0–4 h and body weight were performed using the mixed-effect model for repeated measures (MMRM) with least-squares means and standard error provided. The MMRM included the corresponding baseline value, treatment, visit and treatment-by-visit as fixed effects and patient as a random effect. Mean change or mean percent change from baseline were analysed using a restricted maximum likelihood (REML)‐based repeated measures approach in combination with the Newton Raphson Algorithm. The fix effect of visit was fitted as a repeated effect and an unstructured covariance matrix was used. In case of non-converge, matrix like Variance Components and Compound Symmetry will be tested in a subsequent order until model‐convergence is achieved. The Kenward-Roger degree of freedom was used in estimating fixed effects. No missing data imputation was conducted. For HbA1c, FPG and body weight, point estimate of treatment difference versus placebo and 90% CI were provided for each IBI362 dose group and the dulaglutide group, with nominal p values.

[5] = week 12, 0 min, 3.0 mg cohort, n=7
[6] = week 12, 0 min, 4.5 mg cohort, n=5
[7] = week 12, 0 min, 6.0 mg cohort, n=8
[8] = week 12, 30 min, 3.0 mg cohort, n=7
[9] = week 12, 30 min, 4.5 mg cohort, n=5
[10] = week 12, 30 min, 6.0 mg cohort, n=8
[11] = week 12, 60 min, 3.0 mg cohort, n=7
[12] = week 12, 60 min, 4.5 mg cohort, n=5
[13] = week 12, 60 min, 6.0 mg cohort, n=8
[14] = week 12, 120 min, 3.0 mg cohort, n=7
[15] = week 12, 120 min, 4.5 mg cohort, n=5
[16] = week 12, 120 min, 6.0 mg cohort, n=8
[17] = week 12, 180 min, 3.0 mg cohort, n=7
[18] = week 12, 180 min, 4.5 mg cohort, n=5
[19] = week 12, 180 min, 6.0 mg cohort, n=8
[20] = week 12, 240 min, 3.0 mg cohort, n=7
[21] = week 12, 240 min, 4.5 mg cohort, n=5
[22] = week 12, 240 min, 6.0 mg cohort, n=8

CC(C)C[C@H](NC(=O)[C@H](CC(C)C)NC(=O)[C@H](Cc1c[nH]c2ccccc12)NC(=O)[C@H](CCC(=O)O)NC(=O)[C@@H](NC(=O)[C@H](Cc1ccccc1)NC(=O)[C@H](CCC(=O)O)NC(=O)[C@H](CCCCNC(=O)COCCOCCNC(=O)COCCOCCNC(=O)CC[C@H](NC(=O)CCCCCCCCCCCCCCCCCCC(=O)O)C(=O)O)NC(=O)[C@H](C)NC(=O)[C@H](CCCCN)NC(=O)[C@H](CCCCN)NC(=O)[C@H](CCC(=O)O)NC(=O)[C@H](CC(=O)O)NC(=O)[C@H](CC(C)C)NC(=O)[C@H](Cc1ccc(O)cc1)NC(=O)[C@H](CCCCN)NC(=O)[C@H](CO)NC(=O)[C@H](Cc1ccc(O)cc1)NC(=O)[C@H](CC(=O)O)NC(=O)[C@H](CO)NC(=O)[C@@H](NC(=O)[C@H](Cc1ccccc1)NC(=O)[C@@H](NC(=O)CNC(=O)[C@H](CCC(N)=O)NC(=O)C(C)(C)NC(=O)[C@@H](N)Cc1c[nH]cn1)[C@@H](C)O)[C@@H](C)O)C(C)C)C(=O)N[C@@H](CCC(=O)O)C(=O)NCC(=O)NCC(=O)N1CCC[C@H]1C(=O)N[C@@H](CO)C(=O)N[C@@H](CO)C(=O)NCC(N)=O [IBI362]
Change from baseline to week 12 in LDL cholesterol ([1]; IBI362 3.0 mg): -0.33 mmol/L | Change from baseline to week 12 in total cholesterol ([1]; IBI362 3.0 mg): -0.71 mmol/L | Change from baseline to week 12 in triglycerides ([1]; IBI362 3.0 mg): -0.83 mmol/L | Change from baseline to week 12 in LDL cholesterol ([1]; IBI362 4.5 mg): -1.15 mmol/L | Change from baseline to week 12 in total cholesterol ([1]; IBI362 4.5 mg): -1.68 mmol/L | Change from baseline to week 12 in triglycerides ([1]; IBI362 4.5 mg): -0.23 mmol/L | Change from baseline to week 12 in LDL cholesterol ([1]; IBI362 6.0 mg): -0.90 mmol/L | Change from baseline to week 12 in total cholesterol ([1]; IBI362 6.0 mg): -1.17 mmol/L | Change from baseline to week 12 in triglycerides ([1]; IBI362 6.0 mg): -0.66 mmol/L | Percent change from baseline to week 12 in post-MTT glucose AUC0-4 h, LS mean ([2]; 3.0 mg cohort, n=8): −37.0% and -36.99% | Percent change from baseline to week 12 in post-MTT glucose AUC0-4 h, LS mean ([2]; 4.5 mg cohort, n=8): −38.9% and -38.89% | Percent change from baseline to week 12 in post-MTT glucose AUC0-4 h, LS mean ([2]; 6.0 mg cohort, n=8): −43.9% and -43.88% | Glucose during MTT, mean [2, 5]: 7.91 mmol/L | Glucose during MTT, mean [2, 6]: 7.75 mmol/L | Glucose during MTT, mean [2, 7]: 7.11 mmol/L | Glucose during MTT, mean [2, 8]: 10.06 mmol/L | Glucose during MTT, mean [2, 9]: 9.84 mmol/L | Glucose during MTT, mean [2, 10]: 9.53 mmol/L | Glucose during MTT, mean [2, 11]: 13.39 mmol/L | Glucose during MTT, mean [2, 12]: 11.82 mmol/L | Glucose during MTT, mean [2, 13]: 11.83 mmol/L | Glucose during MTT, mean [2, 14]: 11.24 mmol/L | Glucose during MTT, mean [2, 15]: 10.28 mmol/L | Glucose during MTT, mean [2, 16]: 9.52 mmol/L | Glucose during MTT, mean [2, 17]: 8.73 mmol/L | Glucose during MTT, mean [2, 18]: 8.34 mmol/L | Glucose during MTT, mean [2, 19]: 7.51 mmol/L | Glucose during MTT, mean [2, 20]: 7.23 mmol/L | Glucose during MTT, mean [2, 21]: 7.08 mmol/L | Glucose during MTT, mean [2, 22]: 6.63 mmol/L | Insulin during MTT, mean [3, 5]: 9.22 μU/mL | Insulin during MTT, mean [3, 6]: 13.41 μU/mL | Insulin during MTT, mean [3, 7]: 13.25 μU/mL | Insulin during MTT, mean [3, 8]: 17.47 μU/mL | Insulin during MTT, mean [3, 9]: 22.16 μU/mL | Insulin during MTT, mean [3, 10]: 22.08 μU/mL | Insulin during MTT, mean [3, 11]: 34.23 μU/mL | Insulin during MTT, mean [3, 12]: 41.02 μU/mL | Insulin during MTT, mean [3, 13]: 41.49 μU/mL | Insulin during MTT, mean [3, 14]: 57.20 μU/mL | Insulin during MTT, mean [3, 15]: 45.65 μU/mL | Insulin during MTT, mean [3, 16]: 64.69 μU/mL | Insulin during MTT, mean [3, 17]: 39.93 μU/mL | Insulin during MTT, mean [3, 18]: 50.30 μU/mL | Insulin during MTT, mean [3, 19]: 46.96 μU/mL | Insulin during MTT, mean [3, 20]: 23.01 μU/mL | Insulin during MTT, mean [3, 21]: 25.01 μU/mL | Insulin during MTT, mean [3, 22]: 24.25 μU/mL | Change from baseline in fasting plasma glucose, LS mean ([4]; week 4, 3.0 mg cohort): -2.29 mmol/L | Change from baseline in fasting plasma glucose, LS mean ([4]; week 4, 4.5 mg cohort): -2.47 mmol/L | Change from baseline in fasting plasma glucose, LS mean ([4]; week 4, 6.0 mg cohort): -3.03 mmol/L | Change from baseline in fasting plasma glucose, LS mean ([4]; week 8, 3.0 mg cohort): -2.95 mmol/L | Change from baseline in fasting plasma glucose, LS mean ([4]; week 8, 4.5 mg cohort): -3.38 mmol/L | Change from baseline in fasting plasma glucose, LS mean ([4]; week 8, 6.0 mg cohort): -3.50 mmol/L | Change from baseline in fasting plasma glucose, LS mean (SE) ([4]; 3.0 mg cohort): −3.38 (0.49) mmol/L and −3.38 mmol/L | Fasting plasma glucose: ETD versus placebo, LS mean (90% CI) ([4]; 3.0 mg cohort): -0.85 mmol/L | Change from baseline in fasting plasma glucose, LS mean (SE) ([4]; 4.5 mg cohort): -3.82 mmol/L | Fasting plasma glucose: ETD versus placebo, LS mean (90% CI) ([4]; 4.5 mg cohort): -1.30 mmol/L | Change from baseline in fasting plasma glucose, LS mean (SE) ([4]; 6.0 mg cohort): -4.07 mmol/L
